Measured values published in ChEMBL document CHEMBL3822442, “Synthesis and Pharmacological Characterization of Novel Glucagon-like Peptide-2 (GLP-2) Analogues with Low Systemic Clearance” (J Med Chem, 2016).
pEC50: −log10 of the molar value. The source made the active and inactive calls. The rule behind the calls is not given here. Non-standard residues stand in square brackets, D forms with d. Residues, ends and D or L forms follow the SMILES beside them. Nle = CCCC[C@H](N)C(=O)O

Key:
Assay type in all cases: cell-based
[1] = target: T1, Glucagon-like peptide 2 receptor (Homo sapiens, UniProt O95838); assay: Agonist activity at human GLP2R expressed in HEK293 cells after 5 hrs by luciferase reporter gene assay
T1 sequence (O95838 whole entry): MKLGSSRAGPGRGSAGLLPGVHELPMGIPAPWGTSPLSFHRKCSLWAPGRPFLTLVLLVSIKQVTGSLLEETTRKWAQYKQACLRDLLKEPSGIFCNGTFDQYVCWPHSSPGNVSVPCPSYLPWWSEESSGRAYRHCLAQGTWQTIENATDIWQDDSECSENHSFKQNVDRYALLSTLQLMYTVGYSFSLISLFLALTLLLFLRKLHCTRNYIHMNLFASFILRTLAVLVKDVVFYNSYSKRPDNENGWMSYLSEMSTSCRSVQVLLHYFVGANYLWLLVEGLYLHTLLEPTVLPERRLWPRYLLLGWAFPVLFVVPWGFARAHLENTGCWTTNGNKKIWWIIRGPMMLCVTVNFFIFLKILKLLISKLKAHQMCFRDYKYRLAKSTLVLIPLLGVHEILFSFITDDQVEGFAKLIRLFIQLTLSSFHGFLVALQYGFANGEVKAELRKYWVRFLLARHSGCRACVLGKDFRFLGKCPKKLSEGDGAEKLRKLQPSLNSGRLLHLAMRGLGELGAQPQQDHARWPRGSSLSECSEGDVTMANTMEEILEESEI

[2] = target: Glucagon-like peptide 1 receptor (Homo sapiens, UniProt P43220); assay: Agonist activity at human GLP1R expressed in HEK293 cells after 5 hrs by luciferase reporter gene assay
[3] = target: T2, Glucagon-like peptide 2 receptor (Homo sapiens) (UniProt O95838); assay: Potency index, ratio of compound EC50 to compound 2 EC50 for human GLP2R expressed in HEK293 cells
T2 sequence (whole entry): T1 sequence (O95838 whole entry)

[4] = tested on: HEK293; assay: Selectivity ratio of EC50 for human GLP1R expressed in HEK293 cells to EC50 for human GLP2R expressed in HEK293
[5] = target: Glucagon receptor (Homo sapiens) (UniProt P47871); assay: Agonist activity at human GCGR expressed in HEK293 cells after 5 hrs by luciferase reporter gene assay
Chain of Glucagon receptor (Homo sapiens) (P47871 whole entry): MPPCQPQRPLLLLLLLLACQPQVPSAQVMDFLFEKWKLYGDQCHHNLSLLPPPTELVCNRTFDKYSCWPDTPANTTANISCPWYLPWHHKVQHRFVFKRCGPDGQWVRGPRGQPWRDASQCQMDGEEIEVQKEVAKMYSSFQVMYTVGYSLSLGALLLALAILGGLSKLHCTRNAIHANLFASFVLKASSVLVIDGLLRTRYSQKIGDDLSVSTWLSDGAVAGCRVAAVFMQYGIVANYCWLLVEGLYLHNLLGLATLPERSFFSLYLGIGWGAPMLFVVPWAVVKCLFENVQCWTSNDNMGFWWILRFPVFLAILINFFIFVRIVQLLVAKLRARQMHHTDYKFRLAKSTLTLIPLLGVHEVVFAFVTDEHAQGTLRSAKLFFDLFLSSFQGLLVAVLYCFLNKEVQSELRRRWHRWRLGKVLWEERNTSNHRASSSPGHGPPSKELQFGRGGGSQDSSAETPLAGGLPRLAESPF

Chain of Glucagon-like peptide 1 receptor (P43220 whole entry): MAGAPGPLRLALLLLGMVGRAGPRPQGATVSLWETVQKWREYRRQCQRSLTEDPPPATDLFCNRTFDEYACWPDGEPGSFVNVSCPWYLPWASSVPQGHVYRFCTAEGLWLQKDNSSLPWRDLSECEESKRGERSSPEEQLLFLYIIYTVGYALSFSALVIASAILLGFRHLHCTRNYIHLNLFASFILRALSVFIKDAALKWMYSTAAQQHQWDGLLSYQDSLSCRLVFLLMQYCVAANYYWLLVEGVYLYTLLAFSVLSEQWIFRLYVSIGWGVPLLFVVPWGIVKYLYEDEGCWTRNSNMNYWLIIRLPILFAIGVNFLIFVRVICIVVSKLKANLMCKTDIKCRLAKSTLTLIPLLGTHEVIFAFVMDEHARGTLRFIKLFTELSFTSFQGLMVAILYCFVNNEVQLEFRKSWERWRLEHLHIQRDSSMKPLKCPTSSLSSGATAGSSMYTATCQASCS

| Compound | pEC50 [1] | pEC50 [2] | Ratio EC50 [3] | Ratio EC50 [4] | Activity [5] |
| --- | --- | --- | --- | --- | --- |
| CCCCC(NC(=O)[C@H](CCC(=O)O)NC(=O)[C@H](CC(=O)O)NC(=O)[C@H](CO)NC(=O)[C@H](Cc1ccccc1)NC(=O)[C@H](CO)NC(=O)CNC(=O)[C@H](CC(=O)O)NC(=O)CNC(=O)[C@@H](N)Cc1cnc[nH]1)C(=O)N[C@@H](CC(N)=O)C(=O)N[C@H](C(=O)N[C@H](C(=O)N[C@@H](CC(C)C)C(=O)N[C@@H](CC(=O)O)C(=O)N[C@@H](CC(N)=O)C(=O)N[C@H](CC(C)C)C(=O)N[C@@H](C)C(=O)N[C@@H](C)C(=O)N[C@@H](CCCNC(=N)N)C(=O)N[C@@H](CC(=O)O)C(=O)N[C@@H](Cc1ccccc1)C(=O)N[C@H](C(=O)N[C@@H](CC(N)=O)C(=O)N[C@@H](Cc1c[nH]c2ccccc12)C(=O)N[C@@H](CC(C)C)C(=O)N[C@H](C(=O)N[C@@H](CCC(N)=O)C(=O)N[C@H](C(=O)N[C@@H](CCCCN)C(N)=O)[C@@H](C)O)[C@@H](C)CC)[C@@H](C)CC)[C@@H](C)CC)[C@@H](C)O (stereo not given in full) | 8.59 | < 6.00 | 12 | > 380 | inactive |
| CCCCC(NC(=O)[C@H](CCC(=O)O)NC(=O)[C@H](CC(=O)O)NC(=O)[C@@H](CO)NC(=O)[C@H](Cc1ccccc1)NC(=O)[C@H](CO)NC(=O)CNC(=O)[C@H](CC(=O)O)NC(=O)CNC(=O)[C@@H](N)Cc1cnc[nH]1)C(=O)N[C@@H](CC(N)=O)C(=O)N[C@H](C(=O)N[C@H](C(=O)N[C@@H](CC(C)C)C(=O)N[C@@H](CC(=O)O)C(=O)N[C@@H](CC(N)=O)C(=O)N[C@@H](CC(C)C)C(=O)N[C@@H](C)C(=O)N[C@@H](C)C(=O)N[C@@H](CCCNC(=N)N)C(=O)N[C@@H](CC(=O)O)C(=O)N[C@@H](Cc1ccccc1)C(=O)N[C@H](C(=O)N[C@@H](CC(N)=O)C(=O)N[C@@H](Cc1c[nH]c2ccccc12)C(=O)N[C@@H](CC(C)C)C(=O)N[C@H](C(=O)N[C@@H](CCC(N)=O)C(=O)N[C@H](C(=O)N[C@@H](CCCCN)C(N)=O)[C@@H](C)O)[C@@H](C)CC)[C@@H](C)CC)[C@@H](C)CC)[C@@H](C)O (stereo not given in full) | 9.72 | < 6.00 | 0.86 | > 5200 | inactive |
| CCCC[C@H](NC(=O)[C@H](CCC(=O)O)NC(=O)[C@H](CC(=O)O)NC(=O)[C@H](CO)NC(=O)[C@H](Cc1ccccc1)NC(=O)[C@H](CO)NC(=O)[C@@H](C)NC(=O)[C@H](CC(=O)O)NC(=O)CNC(=O)[C@@H](N)Cc1cnc[nH]1)C(=O)N[C@@H](CC(N)=O)C(=O)N[C@H](C(=O)N[C@H](C(=O)N[C@@H](CC(C)C)C(=O)N[C@@H](CC(=O)O)C(=O)N[C@@H](CC(N)=O)C(=O)N[C@@H](CC(C)C)C(=O)N[C@@H](C)C(=O)N[C@@H](C)C(=O)N[C@@H](CCCNC(=N)N)C(=O)N[C@@H](CC(=O)O)C(=O)N[C@@H](Cc1ccccc1)C(=O)N[C@H](C(=O)N[C@@H](CC(N)=O)C(=O)N[C@@H](Cc1c[nH]c2ccccc12)C(=O)N[C@@H](CC(C)C)C(=O)N[C@H](C(=O)N[C@@H](CCC(N)=O)C(=O)N[C@H](C(=O)N[C@@H](CCCCN)C(N)=O)[C@@H](C)O)[C@@H](C)CC)[C@@H](C)CC)[C@@H](C)CC)[C@@H](C)O (H-HGD[dA]SFSDE[Nle]NTILDNLAARDFINWLIQTK-NH2) | 9.70 | < 6.00 | 0.91 | > 5000 | inactive |
| CCCCC(NC(=O)[C@H](CCC(=O)O)NC(=O)[C@H](CC(=O)O)NC(=O)[C@H](CO)NC(=O)[C@H](Cc1ccccc1)NC(=O)[C@@H](CO)NC(=O)CNC(=O)[C@H](CC(=O)O)NC(=O)CNC(=O)[C@@H](N)Cc1cnc[nH]1)C(=O)N[C@@H](CC(N)=O)C(=O)N[C@H](C(=O)N[C@H](C(=O)N[C@@H](CC(C)C)C(=O)N[C@@H](CC(=O)O)C(=O)N[C@@H](CC(N)=O)C(=O)N[C@@H](CC(C)C)C(=O)N[C@@H](C)C(=O)N[C@@H](C)C(=O)N[C@@H](CCCNC(=N)N)C(=O)N[C@@H](CC(=O)O)C(=O)N[C@@H](Cc1ccccc1)C(=O)N[C@H](C(=O)N[C@@H](CC(N)=O)C(=O)N[C@@H](Cc1c[nH]c2ccccc12)C(=O)N[C@@H](CC(C)C)C(=O)N[C@H](C(=O)N[C@@H](CCC(N)=O)C(=O)N[C@H](C(=O)N[C@@H](CCCCN)C(N)=O)[C@@H](C)O)[C@@H](C)CC)[C@@H](C)CC)[C@@H](C)CC)[C@@H](C)O (stereo not given in full) | 8.09 | < 6.00 | 37 | > 120 | inactive |
| CCCCC(NC(=O)[C@H](CCC(=O)O)NC(=O)[C@H](CC(=O)O)NC(=O)[C@H](CO)NC(=O)[C@H](Cc1ccccc1)NC(=O)[C@H](CO)NC(=O)CNC(=O)[C@H](CC(=O)O)NC(=O)CNC(=O)[C@@H](N)Cc1cnc[nH]1)C(=O)N[C@@H](CC(N)=O)C(=O)N[C@H](C(=O)N[C@H](C(=O)N[C@@H](CC(C)C)C(=O)N[C@@H](CC(=O)O)C(=O)N[C@@H](CC(N)=O)C(=O)N[C@@H](CC(C)C)C(=O)N[C@@H](C)C(=O)N[C@@H](C)C(=O)N[C@@H](CCCNC(=N)N)C(=O)N[C@@H](CC(=O)O)C(=O)N[C@@H](Cc1ccccc1)C(=O)N[C@H](C(=O)N[C@@H](CC(N)=O)C(=O)N[C@@H](Cc1c[nH]c2ccccc12)C(=O)N[C@@H](CC(C)C)C(=O)N[C@H](C(=O)N[C@@H](CCC(N)=O)C(=O)N[C@@H](C(=O)N[C@@H](CCCCN)C(N)=O)[C@H](C)O)[C@@H](C)CC)[C@@H](C)CC)[C@@H](C)CC)[C@@H](C)O (stereo not given in full) | 8.35 | < 6.00 | 20 | > 220 | inactive |
| CCCCC(NC(=O)[C@H](CCC(=O)O)NC(=O)[C@H](CC(=O)O)NC(=O)[C@H](CO)NC(=O)[C@H](Cc1ccccc1)NC(=O)[C@H](CO)NC(=O)CNC(=O)[C@H](CC(=O)O)NC(=O)CNC(=O)[C@@H](N)Cc1cnc[nH]1)C(=O)N[C@H](CC(N)=O)C(=O)N[C@H](C(=O)N[C@H](C(=O)N[C@@H](CC(C)C)C(=O)N[C@@H](CC(=O)O)C(=O)N[C@@H](CC(N)=O)C(=O)N[C@@H](CC(C)C)C(=O)N[C@@H](C)C(=O)N[C@@H](C)C(=O)N[C@@H](CCCNC(=N)N)C(=O)N[C@@H](CC(=O)O)C(=O)N[C@@H](Cc1ccccc1)C(=O)N[C@H](C(=O)N[C@@H](CC(N)=O)C(=O)N[C@@H](Cc1c[nH]c2ccccc12)C(=O)N[C@@H](CC(C)C)C(=O)N[C@H](C(=O)N[C@@H](CCC(N)=O)C(=O)N[C@H](C(=O)N[C@@H](CCCCN)C(N)=O)[C@@H](C)O)[C@@H](C)CC)[C@@H](C)CC)[C@@H](C)CC)[C@@H](C)O (stereo not given in full) | 9.80 | < 6.00 | 0.73 | > 6200 | inactive |
| CCCCC(NC(=O)[C@H](CCC(=O)O)NC(=O)[C@H](CC(=O)O)NC(=O)[C@H](CO)NC(=O)[C@H](Cc1ccccc1)NC(=O)[C@H](CO)NC(=O)CNC(=O)[C@H](CC(=O)O)NC(=O)CNC(=O)[C@@H](N)Cc1cnc[nH]1)C(=O)N[C@@H](CC(N)=O)C(=O)N[C@H](C(=O)N[C@H](C(=O)N[C@@H](CC(C)C)C(=O)N[C@@H](CC(=O)O)C(=O)N[C@@H](CC(N)=O)C(=O)N[C@@H](CC(C)C)C(=O)N[C@@H](C)C(=O)N[C@@H](C)C(=O)N[C@H](CCCNC(=N)N)C(=O)N[C@@H](CC(=O)O)C(=O)N[C@@H](Cc1ccccc1)C(=O)N[C@H](C(=O)N[C@@H](CC(N)=O)C(=O)N[C@@H](Cc1c[nH]c2ccccc12)C(=O)N[C@@H](CC(C)C)C(=O)N[C@H](C(=O)N[C@@H](CCC(N)=O)C(=O)N[C@H](C(=O)N[C@@H](CCCCN)C(N)=O)[C@@H](C)O)[C@@H](C)CC)[C@@H](C)CC)[C@@H](C)CC)[C@@H](C)O (stereo not given in full) | 8.66 | < 6.00 | 10 | > 450 | inactive |
